The nature of the data set: polymorphic stability on drying or wetting (XRPD, Karl Fischer water content). Type of data set: physicochemical. The conditions noted are these: water content between 0.5% and 7% (Karl Fisher). From the text: Advantageously, the pseudo-crystalline rifaximin is stable at a water content comprised between 0.5% and 7%. In contrast to the rifaximin of the state of the art, transition from one polymorphic form to another is not observed when the water content varies between 0.5% and 7%. […] Water content is typically assessed according to the Karl Fisher method.
In the processes of the present invention, the absence of salts (methylaminopyridine hydrochloride and ascorbic acid salts) and the final pH of the solution yield a pseudo-crystalline form of rifaximin which is stable at various water contents comprised between 0.5% and 7%. This pseudo-crystalline form is stable upon drying or wetting with water and transition between different polymorphic forms depending on the water content is not observed. The rifaximin obtained by the process of the present invention is polymorphically stable.
Advantageously, the X-ray diffractogramm of the rifaximin according to the present invention is not modified when the water content varies between 0.5% and 7%.
The diffractograms have been carried out by using the SIEMENS D5000 instrument and under the following working conditions: • Radiation used: Kα of Copper (λ=1.5406 Å) • Tension of the generator: KV 35 • Current of the generator: 30 mA • Starting and final angular 2θ value: from 2.0° to 60.0°.

Turning to `CO[C@H]1/C=C/O[C@@]2(C)Oc3c(C)c(O)c4c(O)c(c5c(nc6cc(C)ccn65)c4c3C2=O)NC(=O)/C(C)=C\C=C\[C@H](C)[C@H](O)[C@@H](C)[C@@H](O)[C@@H](C)[C@H](OC(C)=O)[C@@H]1C` [pseudo-crystalline rifaximin, rifaximin], the “polymorphic stability (transition to another polymorphic form)” value is on record as “stable”.

Source of the values: patent US9150590B2, “Process for the synthesis of rifaximin and a new pseudo-crystalline form of rifaximin obtained thereby” (Friulchem Spa, priority 2011, dated 2015).
